One block for each molecule: values may come before it.
Key:
BT474 cells = test: alamarBlue BT474 cell assay (antiproliferative/cytotoxicity); format: cell-based; details: BT-474 human breast cancer cell line
Procedure, shortened: (§1)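 Seed cells, incubate overnight 37 °C CO2; add cpds (final 10 μM, 1:3 serial, 10 steps, duplicates); incubate 5-6 d; alamarBlue 8 h 37 °C; fluorescence ex 530-560/em 590 nm; blank-subtracted EC50.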

MCF7 cells = test: alamarBlue MCF7 cell assay (antiproliferative/cytotoxicity); format: cell-based; details: MCF7 human breast cancer cell line
Procedure, shortened: as §1

U87 cells = test: U87 cell assay (antiproliferative/cytotoxicity); format: cell-based; details: U-87MG human glioblastoma cells
Procedure, shortened: as §1

MB453 cells = test: alamarBlue MB453 cell assay (antiproliferative/cytotoxicity); format: cell-based; details: Homo sapiens; MDA MB 453 breast cancer cell line
Procedure, shortened: as §1

PI3Kalpha = PI3Kalpha (Homo sapiens (Human), UniProt P42336); test: Inhibition of PI3Kalpha-induced PIP-2 phosphorylation (filter-binding assay); format: biochemical; details: 33P-ATP, p85alpha/His-p110alpha, read-out: IC50 PI3Kα
Procedure, shortened: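 Radiometric filter-binding assay: PI3Kα (25 ng/well) preincubated 20 min at room temperature with compound and PIP2-containing lipid vesicles plus phosphotyrosine PDGFRβ peptide. Reaction started with cold ATP (1 μM final) and [33P]-ATP and run 120 min at room temperature; filter-captured radioactivity counted, IC50 from duplicate dilution series.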

H460 cells = test: alamarBlue H460 cell assay (antiproliferative/cytotoxicity); format: cell-based; details: NCI-H460; H460 human lung carcinoma cells
Procedure, shortened: as §1

Chain of PI3Kalpha (P42336 whole entry): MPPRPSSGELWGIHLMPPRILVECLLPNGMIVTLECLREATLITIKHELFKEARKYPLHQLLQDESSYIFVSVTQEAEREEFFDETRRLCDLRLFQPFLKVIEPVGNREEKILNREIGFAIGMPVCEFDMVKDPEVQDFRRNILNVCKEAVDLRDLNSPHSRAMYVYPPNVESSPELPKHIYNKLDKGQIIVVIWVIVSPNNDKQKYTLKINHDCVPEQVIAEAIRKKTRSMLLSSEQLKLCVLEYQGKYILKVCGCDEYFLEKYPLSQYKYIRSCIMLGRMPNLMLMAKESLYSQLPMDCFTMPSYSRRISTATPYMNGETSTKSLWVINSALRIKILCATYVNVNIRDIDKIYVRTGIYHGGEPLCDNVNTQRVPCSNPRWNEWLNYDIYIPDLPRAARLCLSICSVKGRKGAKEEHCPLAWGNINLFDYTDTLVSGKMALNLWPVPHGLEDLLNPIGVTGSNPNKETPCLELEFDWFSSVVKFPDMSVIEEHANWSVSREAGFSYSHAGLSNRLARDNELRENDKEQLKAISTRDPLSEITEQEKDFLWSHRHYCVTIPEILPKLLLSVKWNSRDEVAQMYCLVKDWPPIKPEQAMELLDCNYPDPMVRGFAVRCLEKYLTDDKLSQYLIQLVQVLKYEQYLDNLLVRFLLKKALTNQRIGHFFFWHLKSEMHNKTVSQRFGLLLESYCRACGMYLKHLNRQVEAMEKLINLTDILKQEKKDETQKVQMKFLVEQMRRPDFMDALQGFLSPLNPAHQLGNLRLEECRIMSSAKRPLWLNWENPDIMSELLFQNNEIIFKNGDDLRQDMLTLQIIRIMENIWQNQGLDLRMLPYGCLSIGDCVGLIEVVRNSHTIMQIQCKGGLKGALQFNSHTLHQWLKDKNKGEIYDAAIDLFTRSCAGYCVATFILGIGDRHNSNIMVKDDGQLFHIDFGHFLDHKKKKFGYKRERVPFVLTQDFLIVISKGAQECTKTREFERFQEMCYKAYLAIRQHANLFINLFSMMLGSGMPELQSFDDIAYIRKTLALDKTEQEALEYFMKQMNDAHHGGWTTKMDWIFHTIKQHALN

Compound: Cc1ncc(C#Cc2c(C)ncnc2N2CCOCC2)cc1NS(=O)(=O)c1cccnc1 [Example I-54, Pyridine-3-sulfonic acid [2-methyl-5-(4-methyl-6-morpholin-4-yl-pyrimidin-5-ylethynyl)-pyridin-3-yl]-amide]
EC50 (BT474 cells): 949 nM | EC50 (MCF7 cells): 44 nM | EC50 (U87 cells): 581 nM | EC50 (MB453 cells): 274 nM | IC50 (PI3Kalpha): 1 nM | EC50 (H460 cells): 553 nM

Compound: Cc1ncc(C#Cc2c(C)ncnc2N2CCOCC2)cc1NS(=O)(=O)c1cn(C)c(C)n1 [Example I-55, 1,2-Dimethyl-1H-imidazole-4-sulfonic acid [2-methyl-5-(4-methyl-6-morpholin-4-yl-pyrimidin-5-ylethynyl)-pyridin-3-yl]-amide]
EC50 (BT474 cells): 1550 nM | EC50 (MCF7 cells): 208 nM | EC50 (U87 cells): 1980 nM | EC50 (MB453 cells): 1680 nM | IC50 (PI3Kalpha): 1 nM | EC50 (H460 cells): 1180 nM

Compound: Cc1ncc(C#Cc2c(C)ncnc2N2CCOCC2)cc1NS(=O)(=O)c1ccnn1C [Example I-56, 2-Methyl-2H-pyrazole-3-sulfonic acid [2-methyl-5-(4-methyl-6-morpholin-4-yl-pyrimidin-5-ylethynyl)-pyridin-3-yl]-amide]
EC50 (BT474 cells): 487 nM | EC50 (MCF7 cells): 125 nM | EC50 (U87 cells): 779 nM | EC50 (MB453 cells): 239 nM | IC50 (PI3Kalpha): 0.44 nM | EC50 (H460 cells): 756 nM

Compound: Cc1ncc(C#Cc2c(C)ncnc2N2CCOCC2)cc1NS(=O)(=O)N1CCCC1 [Example I-64, Pyrrolidine-1-sulfonic acid [2-methyl-5-(4-methyl-6-morpholin-4-yl-pyrimidin-5-ylethynyl)-pyridin-3-yl]-amide]
EC50 (BT474 cells): 5950 nM | EC50 (MCF7 cells): 59 nM | EC50 (U87 cells): 773 nM | EC50 (MB453 cells): 584 nM | IC50 (PI3Kalpha): 2 nM | EC50 (H460 cells): 71 nM

Compound: CCc1ncnc(N2CCN(C)CC2)c1C#Cc1cnc(C)c(NS(=O)(=O)c2ccc(F)cc2)c1 [Example I-65, N-{5-[4-Ethyl-6-(4-methyl-piperazin-1-yl)-pyrimidin-5-ylethynyl]-2-methyl-pyridin-3-yl}-4-fluoro-benzenesulfonamide]
EC50 (BT474 cells): 281 nM | EC50 (MCF7 cells): 28 nM | EC50 (U87 cells): 524 nM | EC50 (MB453 cells): 230 nM | IC50 (PI3Kalpha): 0.89 nM | EC50 (H460 cells): 168 nM

Compound: CCc1ncnc(N2CCC(O)CC2)c1C#Cc1cnc(C)c(NS(=O)(=O)c2ccc(F)cc2)c1 [Example I-66, N-{5-[4-Ethyl-6-(4-hydroxy-piperidin-1-yl)-pyrimidin-5-ylethynyl]-2-methyl-pyridin-3-yl}-4-fluoro-benzenesulfonamide]
EC50 (BT474 cells): 91 nM | EC50 (MCF7 cells): 145 nM | EC50 (U87 cells): 540 nM | EC50 (MB453 cells): 175 nM | IC50 (PI3Kalpha): 0.48 nM | EC50 (H460 cells): 444 nM

Compound: CCc1ncnc(N2CCN(S(C)(=O)=O)CC2)c1C#Cc1cnc(C)c(NS(=O)(=O)c2ccc(F)cc2)c1 [Example I-67, N-{5-[4-Ethyl-6-(4-methanesulfonyl-piperazin-l-yl)-pyrimidin-5-ylethynyl]-2-methyl-pyridin-3-yl}-4-fluoro-benzenesulfonamide]
EC50 (BT474 cells): 44 nM | EC50 (MCF7 cells): 9 nM | EC50 (U87 cells): 471 nM | EC50 (MB453 cells): 54 nM | IC50 (PI3Kalpha): 0.14 nM | EC50 (H460 cells): 37 nM

Compound: CCc1ncnc(N2CCN(C(C)=O)CC2)c1C#Cc1cnc(C)c(NS(=O)(=O)c2ccc(F)cc2)c1 [Example I-68, N-{5-[4-(4-Acetyl-piperazin-1-yl)-6-ethyl-pyrimidin-5-ylethynyl]-2-methyl-pyridin-3-yl}-4-fluoro-benzenesulfonamide]
EC50 (BT474 cells): 117 nM | EC50 (MCF7 cells): 36 nM | EC50 (U87 cells): 545 nM | EC50 (MB453 cells): 116 nM | IC50 (PI3Kalpha): 0.47 nM | EC50 (H460 cells): 542 nM

More lines, main results first:

IC50 (PI3Kalpha): 0.83 nM
Compound: COCCN1CCN(c2ncnc(C)c2C#Cc2cnc(C)c(NS(=O)(=O)c3ccccc3)c2)CC1 [Example I-57, N-(5-{4-[4-(2-Methoxy-ethyl)-piperazin-1-yl]-6-methyl-pyrimidin-5-ylethynyl}-2-methyl-pyridin-3-yl)-benzenesulfonamide]
EC50 (BT474 cells): 1300 nM | EC50 (MCF7 cells): 2 nM | EC50 (U87 cells): 338 nM | EC50 (MB453 cells): 443 nM | EC50 (H460 cells): 82 nM

IC50 (PI3Kalpha): 16 nM
Compound: Cc1ncc(C#Cc2c(C)ncnc2N2CCN(C3CC3)CC2)cc1NS(=O)(=O)c1ccccc1 [Example I-58, N-{5-[4-(4-Cyclopropyl-piperazin-1-yl)-6-methyl-pyrimidin-5-ylethynyl]-2-methyl-pyridin-3-yl}-benzenesulfonamide]
EC50 (BT474 cells): 3000 nM | EC50 (MCF7 cells): 1300 nM | EC50 (U87 cells): 25000 nM | EC50 (MB453 cells): 4640 nM | EC50 (H460 cells): 2990 nM

IC50 (PI3Kalpha): 2 nM
Compound: Cc1ncc(C#Cc2c(C)ncnc2N2CCN(C)C(=O)C2)cc1NS(=O)(=O)c1ccccc1 [Example I-60, N-{2-Methyl-5-[4-methyl-6-(4-methyl-3-oxo-piperazin-1-yl)-pyrimidin-5-ylethynyl]-pyridin-3-yl}-benzenesulfonamide]
EC50 (BT474 cells): 1540 nM | EC50 (MCF7 cells): 103 nM | EC50 (U87 cells): 945 nM | EC50 (MB453 cells): 618 nM | EC50 (H460 cells): 1250 nM

IC50 (PI3Kalpha): 2 nM
Compound: CC(=O)N1CCN(c2ncnc(C)c2C#Cc2cnc(C)c(NS(=O)(=O)c3ccccc3)c2)CC1 [Example I-61, N-{5-[4-(4-Acetyl-piperazin-1-yl)-6-methyl-pyrimidin-5-ylethynyl]-2-methyl-pyridin-3-yl}-benzenesulfonamide]
EC50 (BT474 cells): 1120 nM | EC50 (MCF7 cells): 39 nM | EC50 (U87 cells): 631 nM | EC50 (MB453 cells): 262 nM | EC50 (H460 cells): 791 nM

IC50 (PI3Kalpha): 3 nM
Compound: CC(=O)N1CCCN(c2ncnc(C)c2C#Cc2cnc(C)c(NS(=O)(=O)c3ccccc3)c2)CC1 [Example I-62, N-{5-[4-(4-Acetyl-[1,4]diazepan-1-yl)-6-methyl-pyrimidin-5-ylethynyl]-2-methyl-pyridin-3-yl}-benzenesulfonamide]
EC50 (BT474 cells): 4050 nM | EC50 (MCF7 cells): 709 nM | EC50 (U87 cells): 1290 nM | EC50 (MB453 cells): 969 nM | EC50 (H460 cells): 1740 nM

IC50 (PI3Kalpha): 3 nM
Compound: Cc1ncc(C#Cc2c(C)ncnc2N2CCCCC2)cc1NS(=O)(=O)c1ccccc1 [Example I-63, N-[2-Methyl-5-(4-methyl-6-piperidin-1-yl-pyrimidin-5-ylethynyl)-pyridin-3-yl]-benzenesulfonamide]
EC50 (BT474 cells): 4320 nM | EC50 (MCF7 cells): 126 nM | EC50 (U87 cells): 1300 nM | EC50 (MB453 cells): 1330 nM | EC50 (H460 cells): 308 nM

— patent publication US8598157B2, “5-alkynyl-pyridines” (Boehringer Ingelheim International GmbH, priority 2011, dated 2013)
